Data as given in ChEMBL document CHEMBL1157921, “Selective targeting of 2'-deoxy-5-fluorouridine to urokinase positive malignant cells in vitro” (Bioorg Med Chem Lett, 2010).
pIC50: −log10 of the molar value. The source made the active and inactive calls. No cut-off for these calls is given here.

Legend:
Type in all cases: functional, cell-based
[1] = system: MCF7; experiment: Cytotoxicity against human MCF7 cells overexpressing urokinase plasminogen activator at > 144 uM
[2] = system: MDA-MB-231; experiment: Cytotoxicity against human MDA-MB-231 cells overexpressing urokinase plasminogen activator
[3] = system: MCF7; experiment: Cytotoxicity against human MCF7 cells overexpressing urokinase plasminogen activator at > 20.3 uM

Compound	inhibition [1]	pIC50 [2]	inhibition [3]
O=C(O)CCC(=O)O[C@H]1C[C@H](n2cc(F)c(=O)[nH]c2=O)O[C@@H]1CO	inactive	–	–
O=c1[nH]c(=O)n([C@H]2C[C@H](O)[C@@H](CO)O2)cc1F [FLOXURIDINE]	–	6.68	inactive
